Literature values in US20050228335A1, “Physical, structural, mechanical, electrical and electromechanical features for use in association with electrically assisted delivery devices and systems” (priority 2004, published 2005).

Details: iontophoresis in vitro across human skin

Cumulative delivery compared with lidocaine	SMILES
slightly greater delivery	CCN(CC)CCOC(=O)c1ccc(N)cc1 [procaine]
slightly greater delivery	CCCN(CC)C(CC)C(=O)Nc1c(C)cccc1C (centres unmarked) [etidocaine]
